In data set [1] the test system is GCP II. Nature of the data set: Baboon PET study of renal cortical uptake with tracer kinetic modeling. The format is in vivo, baboon (Papio anubis). The protocol:
(§1) A dynamic PET study of the renal cortical uptake and clearance of ^11C-MCG was performed in an adult male baboon (Papio anubis; body weight, approximately 30 kg). Before each study, two intraveneous catheters and a single arterial catheter were placed for infusion of anesthesia, injection of radiotracer and sampling of arterial blood, respectively. The animal was initially anestitized intramuscurally with 8-10 mg/kg alfadolone and alfaxalone acetate (Saffan; Pitman-Moore, Middlesex, UK) and was intubated. Anesthesia was maintained throughout the study by a continuous intravenous infusion drip of 6-9 mg/kg/h of Saffan. The animal was secured to the PET bed using an individually fitted thermoplastic mask. Pulse, blood pressure, and oxygen saturation were monitored continuously during the studies. Blood oxygen saturation was always maintained above 85%. After the animal was positioned in the PET scanner, transmission scanning was performed with a 370 MBq (10 mCi) ^68Ga source to allow for attenuation correction. PET scanning was started immediately after intravenous injection of 370 MBq (10 mCi) of high-specific-acitivtiy ^11C-MCG (corresponding, at a maximum, to 0.02 μg/kg). Thirty-five simultaneous, contiguous (18 directed planes, 17 cross planes, z-axis 14.45 cm), sequential quantitative tomographic slices fo […] were obtained with a GE Advance PET tomograph (General Electric Medical Systems, Milwaukee, Wis.) in the high-resolution mode (4.25-5.00 mm ful width at half maximum within the slice) over a 90 minute period. The animal was positioned so that the renal cortex was in the filed of view. Approximately 30 arterial blood samples (for radioassay and protein binding) were obtained over 90 minutes. […]
A one-tissue, three parameter (K1=influx, k2 efflux, DV=distribution volume) model was applied to the TACs and to the metabolite-corrected renal uptake curves to describe tracer kinetics with DV (=K1/k2 in ml/ml) used as anindex of receptor density. The effect of blocking with PMPA was evaluated by changes in the Dva nd calculated as 100×(DVbaseline−DVblocker)/DVbaseline. […]

Data set [2] deals with T1, GCP II (Mus musculus, UniProt O35409).
T1 construct: from tissue; host or cells: kidney of live male CD-1 mice
T1 sequence (O35409 whole entry): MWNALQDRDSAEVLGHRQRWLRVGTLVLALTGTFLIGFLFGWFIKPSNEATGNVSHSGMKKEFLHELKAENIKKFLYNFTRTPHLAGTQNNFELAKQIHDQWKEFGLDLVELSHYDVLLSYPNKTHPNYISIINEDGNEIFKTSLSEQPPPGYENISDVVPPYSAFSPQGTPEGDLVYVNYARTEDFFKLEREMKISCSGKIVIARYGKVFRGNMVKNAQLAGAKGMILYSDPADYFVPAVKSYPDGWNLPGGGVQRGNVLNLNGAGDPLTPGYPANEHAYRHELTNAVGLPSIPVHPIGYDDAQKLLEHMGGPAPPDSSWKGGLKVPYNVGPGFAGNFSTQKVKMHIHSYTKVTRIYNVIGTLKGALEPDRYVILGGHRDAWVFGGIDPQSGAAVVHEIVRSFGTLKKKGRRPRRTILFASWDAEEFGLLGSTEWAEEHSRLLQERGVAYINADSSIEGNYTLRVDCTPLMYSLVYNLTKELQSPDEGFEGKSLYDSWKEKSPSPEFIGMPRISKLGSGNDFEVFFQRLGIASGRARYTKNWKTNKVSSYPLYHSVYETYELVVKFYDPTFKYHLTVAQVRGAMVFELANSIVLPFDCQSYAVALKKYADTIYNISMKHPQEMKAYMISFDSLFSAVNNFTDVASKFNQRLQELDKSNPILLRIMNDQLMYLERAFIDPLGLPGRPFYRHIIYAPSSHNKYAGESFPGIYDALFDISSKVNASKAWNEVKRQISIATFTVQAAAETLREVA
Nature of the data set: Binding specificity: blocking of ^11C-MCG kidney uptake by pretreatment with blocker. The format is in vivo, mice. Conditions: for reduction in ^11C-MCG uptake: mouse kidney, pretreatment 5 minutes prior with unlabeled MCG (up to 1 mg/kg) or PMPA (1 mg/kg), sacrifice 30 minutes. The protocol:
ANOVA, which was used in rodent radiotracer uptake studies, was performed with StatView SE Graphic software, version 1.03 (SAS Institute, Cary, N.C.). For the Students t test, p<0.01 was considered to indicate statistical significance.

A short description of data set [3]: LogP (hydrophilicity). The format is physicochemical.
The nature of data set [4]: Metabolism of ^11C-MCG in baboon arterial plasma. The format is in vivo, baboon (Papio anubis). The protocol: as §1, with “PET scanning was started immediately after intravenous injection of 370 MBq (10 mCi) of high-specific-acitivtiy ^11C-MCG (corresponding, at a maximum, to 0.02 μg/kg).” left out, “period.” for “period. The animal was positioned so that the renal cortex was in the filed of view. Approximately 30 arterial blood samples (for radioassay and protein binding) were obtained over 90 minutes.”

The conditions of data set [5]: in vivo.
Description: Male CD-1 mice (Charles River, Wilmington, Mass.) weighing between 20 and 25 g were used and received an injection of 3.7 MBq (100 μCi) of ^11C-MCG through the tail vein. That amounted to, at a maximum, 0.27 μg/kg. For kinetic studies, mice were killed by cervical dislocation at 5, 15, 30, 60, and 120 min after injection fo the radiotracer in 200 μL of saline vehicle. The brains were removed and placed on ice, and the cerebellum, olfactory bulb, hypothalamus, hippocampus, striatum, parietal cortex, brainstem, and thalamus were harvested. Kidneys, blood, fat, muscle, small intestine, and prostate were also harvested. The tissue samples were weighted, and their radioactivity content was determined in an automated γ counter (1282 Compugamma CS: Pharmacia/LKB Nuclear, Gaithersburg Md.). Aliquots of the injected tracer were counted along with the samples and served as standards for the calculation of percentage injected dose per gram of tissue (% ID/g). To assess binding specificity, groups of three mice each were pretreated with the high affinity GCP II inhibitor PMPA at does of 1, 10 and 100 mg/kg in 200 μL of saline vehicle 5 minutes prior to ^11C-MCG injection. In an additional binding specificity study, animals were pretreated similarly with unlabeled MCG standard at doses of 5, 50, 100, 500, and 1000 μg/kg before ^11C-MCG injection
Data set [6] can be described thus: Metabolism studies of ^11C-MCG in mice (blood and kidney, HPLC). Conditions: mice in vivo, n=2. The protocol:
At different times after injection of ^11C-MCG into mice, blood and kidneys were collected to determine the rate of metabolism of the radiotracer. Heparinized blood (0.2-0.3 mL) was diluted to 0.9 mL with cold 0.9% saline and acidified to 0.5 N by the rapid addition of 0.1 mL of 5 N perchloric acid. Following 5 minutes on ice, the precipitate was removed by centrifugation to yield an acid-soluble supernatant that was analyzed by HPLC. Similarly, an acid extract of mouse kidney was obtained from an initial homogenate of two kidneys in 0.8 mL of cold water.
The acid extracts were loaded onto a 4.6×250 mm Prodigy ODS-3 column (Phenomenex) eluted with 10% acetonitrile in 50 mM sodium phosphate buffer pH 2.5 at a flow rate of 2 mL/min. Radioactivity was measured by a dual BGO flow detector and the chromatograph analyzed by Laura software (Bioscan, Washington, D.C.). ^11C-MCG eluted after 4.0 minutes with a minor, earlier eluting product at 2.5 minutes.

The source of these data is US7408079B2, “Imaging agents and methods of imaging NAALADase or PSMA” (The Johns Hopkins University, priority 2002, dated 2008).

Bounds are passed on as bounds.

In the case of `O=C(O)CCC(CP(=O)(O)O)C(=O)O` (stereo not drawn) [PMPA, reference compound], the “reduction in the DV of ^11C-MCG” value in data set [1] (baboon renal cortex, pretreatment with 3 mg/kg PMPA) turned out to be 37%. The “reduction in ^11C-MCG uptake” value in data set [2] was “approximately sixfold”.

As to `CSCC(NC(=O)NC(CCC(=O)O)C(=O)O)C(=O)O` (stereo not drawn) [MCG], the “decreasing ^11C-MCG uptake in mouse kidney (FIG. 1)” value in data set [2] (increasing concentration of unlabeled MCG blocker, up to) is given as “approximately seven fold”. The “reduction in ^11C-MCG uptake” value in data set [2] is “approximately sixfold”.

With `[11CH3]SC[C@H](NC(=O)N[C@@H](CCC(=O)O)C(=O)O)C(=O)O` [^11C-MCG, 2-[3-(1-Carboxy-2-^11C-methylsulfanyl-ethyl)-ureido]-pentanedioic acid], the “DV (distribution volume)” value in data set [1] (baboon renal cortex, after pretreatment with 3 mg/kg PMPA) is 0.878 mL/mL. Further, in data set [1] (male, baboon (Papio anubis), in vivo), the “DV (distribution volume)” value is recorded as 1.38 mL/mL. For the same molecule, the logP (usually a log measure of how a compound divides between an organic and an aqueous phase) in data set [3] is -0.235. This molecule also registered a peak metabolism in data set [4] (baseline, 90 minutes after injection) of 9.0%. The molecule also displayed a peak metabolism in data set [4] (blocker (2 mg/kg PMPA) 10 minutes prior to tracer, 90 minutes post injection) of 4.0%. Besides, in data set [5] (male, CD-1, mouse, 30 min), the Kidney/blood ratio worked out at 30, the Prostate uptake amounted to 1.55±1.01 % ID/G, the kidney/muscle ratio turned out to be 73 and the uptake in brainstem amounted to 0.12±0.03 % ID/g. In data set [5] (male, CD-1, mouse, 30 min), this molecule displayed an uptake in cerebellum of less than 0.1 % ID/g, an uptake in cortex of less than 0.1 % ID/g and an uptake in hippocampus of less than 0.1 % ID/g. Also, the Brain uptake result in data set [5] (mouse) is listed as “low”. Also, in data set [6] (30 minute time point), the metabolism in kidney is 2.0% and the metabolism in plasma is 3.5%. Besides, the metabolism in plasma result in data set [6] (60 minutes) is given as “at most 9.2%”. This molecule also had a metabolism in kidney in data set [6] (at most over 5-60 minutes) not above 10.4%.
